Experimental findings from patent publication US8008094B2, “Methods for analyzing interactions between proteins and sugar chains” (National Institute of Advanced Industrial Science and …, priority 2003, dated 2011) are described below.

Experiment [1] deals with glycoprotein probe derived from mouse brain. The experiment is described as follows: Lectin array (40 lectins) with crude brain-derived glycoprotein probe plus inhibiting sugar (Example 7). It counts as binding. The conditions noted are these: 10 mM inhibiting sugar added to brain-derived glycoprotein probe, FIG. 14C. Here is the method:
A glycoprotein sample extracted and purified from mouse liver and a glycoprotein sample extracted and purified from mouse brain were labeled with Cy3 to form probes, then contacted with a lectin array onto which 40 types of lectins were immobilized, and the sugar chain profile of the entire extracted mouse glycoprotein mixture was observed. Next, 10 mM of lactose was added as a competitively inhibiting sugar to the brain-derived glycoprotein probe used in the previous experiment, and the sugar chain profile was observed (FIG. 14C). […] As shown by this experiment, even when using a lectin array for the sugar chain profiling of cruder samples, comparisons and analyses between individuals can be made easier and faster by the combined use of addition experiments that use various inhibiting sugars, and comparison and analysis after narrowing down the obtained data.

For experiment [2], the system named is binding of Cy3-ASF to lectin spots. Briefly: Inhibition of lectin-sugar chain interaction on lectin array by competitively inhibiting sugar (Example 1). To be noted: Cy3-ASF probe, increasing inhibiting sugar concentration.

With `OC[C@H]1O[C@@H](O[C@H]2[C@H](O)[C@@H](O)C(O)O[C@@H]2CO)[C@H](O)[C@@H](O)[C@H]1O` (some centres unmarked) [lactose], the “change of fluorescence signal pattern due to competitive inhibition” value in experiment [1] is listed as “reduction was observed mainly in the signals of lactosamine-recognizing lectins”. The “fluorescence intensity of the spots in the presence of inhibiting sugar” value in experiment [2] is “decreases as the concentration of lactose (competitively inhibiting sugar) increases”.
